biological target: [35S]-TBPS binding, rat brain cortical membranes; assay: Steroid inhibition of [35S]-TBPS binding; settings: 3 nM [35S]-TBPS, in the presence of 5 mM GABA
Method: [^35S]-t-Butylbicyclophosphorothionate (TBPS) binding assays using rat brain cortical membranes in the presence of 5 mM GABA has been described (Gee et al, J. Pharmacol. Exp. Ther. 1987, 241, 346-353; Hawkinson et al, Mol. Pharmacol. 1994, 46, 977-985; Lewin, A. H et al., Mol. Pharmacol. 1989, 35, 189-194).
Briefly, cortices are rapidly removed following decapitation of carbon dioxide-anesthetized Sprague-Dawley rats (200-250 g). The cortices are homogenized in 10 volumes of ice-cold 0.32 M sucrose using a glass/teflon homogenizer and centrifuged at 1500×g for 10 min at 4° C. The resultant supernatants are centrifuged at 10,000×g for 20 min at 4° C. to obtain the P2 pellets. The P2 pellets are resuspended in 200 mM NaCl/50 mM Na—K phosphate pH 7.4 buffer and centrifuged at 10,000×g for 10 min at 4° C. This washing procedure is repeated twice and the pellets are resuspended in 10 volumes of buffer. Aliquots ([…]) of the membrane suspensions are incubated with 3 nM [^35S]-TBPS and […] aliquots of test drug dissolved in dimethyl sulfoxide (DMSO) (final 0.5%) in the presence of 5 mM GABA. The incubation is brought to a final volume of 1.0 mL with buffer. Nonspecific binding is determined in the presence of […] and ranged from 15 to 25%. Following a 90 min incubation at room temp, the assays are terminated by filtration through glass fiber filters (Schleicher and Schuell No. 32) using a cell harvester (Brandel) and rinsed three times with ice-cold buffer. Filter bound radioactivity is measured by liquid scintillation spectrometry. Non-linear curve fitting of the overall data for each drug averaged for each concentration is done using Prism (GraphPad). […] The concentration of test compound producing 50% inhibition (IC50) of specific binding and the maximal extent of inhibition (Imax) are determined for the individual experiments with the same model used for the overall data and then the means±SEM.s of the individual experiments are calculated.
Various compounds are or can be screened to determine their potential as modulators of [^35S]-TBPS binding in vitro. These assays are or can be performed in accordance with the above

Compound	IC50 [nM]
CC[C@]12CC[C@@](C)(O)C[C@H]1CC[C@H]1[C@@H]3CC[C@H](C(C)Cn4cc(C#N)cn4)[C@@]3(C)CC[C@@H]12 (stereo in doubt) [Example 325, 1-((S)-2-((3R,5R,8S,9S,10S,13S,14S,17R)-10-ethyl-3-hydroxy-3,13-dimethylhexadecahydro-1H-cyclopenta[a]phenanthren-17-yl)propyl)-1H-pyrazole-4-carbonitrile]	< 100
CC[C@]12CC[C@@](C)(O)C[C@H]1CC[C@H]1[C@@H]3CC[C@H](C(C)Cn4cc(C#N)cn4)[C@@]3(C)CC[C@@H]12 (stereo in doubt) [Example 326, 1-((R)-2-((3R,5R,8S,9S,10S,13S,14S,17R)-10-ethyl-3-hydroxy-3,13-dimethylhexadecahydro-1H-cyclopenta[a]phenanthren-17-yl)propyl)-1H-pyrazole-4-carbonitrile]	< 100
CCC[C@@]1(O)CC[C@@]2(C)[C@H](CC[C@H]3[C@@H]4CC[C@H](C(C)Cn5cc(C#N)cn5)[C@@]4(C)CC(=O)[C@@H]32)C1 (stereo in doubt) [Example 340, 1-((R)-2-((3R,5R,8S,9S,10S,13S,14S,17R)-3-hydroxy-10,13-dimethyl-11-oxo-3-propylhexadecahydro-1H-cyclopenta[a]phenanthren-17-yl)propyl)-1H-pyrazole-4-carbonitrile]	< 100
CCOC(=O)c1cnc(C[C@H](C)[C@H]2CC[C@H]3[C@@H]4CC[C@H]5C[C@](C)(O)CC[C@@H]5[C@H]4CC[C@]23C)o1 (stereo in doubt) [Example 455]	< 100
CCOC(=O)c1cnc(C[C@@H](C)[C@H]2CC[C@H]3[C@@H]4CC[C@@H]5C[C@](C)(O)CC[C@@H]5[C@H]4CC[C@]23C)o1 (stereo in doubt) [Example 456]	100 to 1000
C[C@@]1(O)CC[C@H]2[C@H](CC[C@@H]3[C@@H]2CC[C@]2(C)[C@@H](CN4CCCCC4=O)CC[C@@H]32)C1 [Example 1, 1-(((3R,5R,8R,9R,10S,13S,14S,17S)-3-hydroxy-3,13-dimethylhexadecahydro-1H-cyclopenta[a]phenanthren-17-yl)methyl)piperidin-2-one]	1000 to 10000
CN(C[C@H]1CC[C@H]2[C@@H]3CC[C@@H]4C[C@](C)(O)CC[C@@H]4[C@H]3CC[C@]12C)C(=O)c1ccccc1 [Example 2, N-(((3R,5R,8R,9R,10S,13S,14S,17S)-3-hydroxy-3,13-dimethylhexadecahydro-1H-cyclopenta[a]phenanthren-17-yl)methyl)-N-methylbenzamide]	100 to 1000
C[C@@]1(O)CC[C@H]2[C@H](CC[C@@H]3[C@@H]2CC[C@]2(C)[C@@H](CNC(=O)c4ccccc4)CC[C@@H]32)C1 [Example 3, N-(((3R,5R,8R,9R,10S,13S,14S,17S)-3-hydroxy-3,13-dimethylhexadecahydro-1H-cyclopenta[a]phenanthren-17-yl)methyl)benzamide]	< 100
CN(C[C@H]1CC[C@H]2[C@@H]3CC[C@@H]4C[C@](C)(O)CC[C@@H]4[C@H]3CC[C@]12C)S(=O)(=O)c1ccccc1 [Example 5, N-(((3R,5R,8R,9R,10S,13S,14S,17S)-3-hydroxy-3,13-dimethylhexadecahydro-1H-cyclopenta[a]phenanthren-17-yl)methyl)-N-methylbenzenesulfonamide]	< 100
C[C@H]1CCCC(=O)N1C[C@H]1CC[C@H]2[C@@H]3CC[C@@H]4C[C@](C)(O)CC[C@@H]4[C@H]3CC[C@]12C [Example 6, (S)-1-(((3R,5R,8R,9R,10S,13S,14S,17S)-3-hydroxy-3,13-dimethylhexadecahydro-1H-cyclopenta[a]phenanthren-17-yl)methyl)-6-methylpiperidin-2-one]	1000 to 10000
C[C@@H]1CCCC(=O)N1C[C@H]1CC[C@H]2[C@@H]3CC[C@@H]4C[C@](C)(O)CC[C@@H]4[C@H]3CC[C@]12C [Example 7, (R)-1-(((3R,5R,8R,9R,10S,13S,14S,17S)-3-hydroxy-3,13-dimethylhexadecahydro-1H-cyclopenta[a]phenanthren-17-yl)methyl)-6-methylpiperidin-2-one]	1000 to 10000
C[C@@]1(O)CC[C@H]2[C@H](CC[C@@H]3[C@@H]2CC[C@]2(C)[C@@H](CNC(=O)Cc4ccccc4)CC[C@@H]32)C1 [Example 8, N-(((3R,5R,8R,9R,10S,13S,14S,17S)-3-hydroxy-3,13-dimethylhexadecahydro-1H-cyclopenta[a]phenanthren-17-yl)methyl)-2-phenylacetamide]	< 100
C[C@@]1(O)CC[C@H]2[C@H](CC[C@@H]3[C@@H]2CC[C@]2(C)[C@@H](CN4C[C@@H](c5ccccc5)CC4=O)CC[C@@H]32)C1 [Example 9, (R)-1-(((3R,5R,8R,9R,10S,13S,14S,17S)-3-hydroxy-3,13-dimethylhexadecahydro-1H-cyclopenta[a]phenanthren-17-yl)methyl)-4-phenylpyrrolidin-2-one]	100 to 1000
C[C@@]1(O)CC[C@H]2[C@H](CC[C@@H]3[C@@H]2CC[C@]2(C)[C@@H](CN4C[C@H](c5ccccc5)CC4=O)CC[C@@H]32)C1 [Example 10, (S)-1-(((3R,5R,8R,9R,10S,13S,14S,17S)-3-hydroxy-3,13-dimethylhexadecahydro-1H-cyclopenta[a]phenanthren-17-yl)methyl)-4-phenylpyrrolidin-2-one]	100 to 1000
C[C@@]1(O)CC[C@H]2[C@H](CC[C@@H]3[C@@H]2CC[C@]2(C)[C@@H](CN4CC[C@@H](c5ccccc5)C4=O)CC[C@@H]32)C1 [Example 11, (S)-1-(((3R,5R,8R,9R,10S,13S,14S,17S)-3-hydroxy-3,13-dimethylhexadecahydro-1H-cyclopenta[a]phenanthren-17-yl)methyl)-3-phenylpyrrolidin-2-one]	100 to 1000
C[C@@]1(O)CC[C@H]2[C@H](CC[C@@H]3[C@@H]2CC[C@]2(C)[C@@H](CN4CC[C@H](c5ccccc5)C4=O)CC[C@@H]32)C1 [Example 12, (R)-1-(((3R,5R,8R,9R,10S,13S,14S,17S)-3-hydroxy-3,13-dimethylhexadecahydro-1H-cyclopenta[a]phenanthren-17-yl)methyl)-3-phenylpyrrolidin-2-one]	< 100
C[C@@]1(O)CC[C@H]2[C@H](CC[C@@H]3[C@@H]2CC[C@]2(C)[C@@H](CN4C(=O)CCC[C@@H]4c4ccccc4)CC[C@@H]32)C1 [Example 13, (R)-1-(((3R,5R,8R,9R,10S,13S,14S,17S)-3-hydroxy-3,13-dimethylhexadecahydro-1H-cyclopenta[a]phenanthren-17-yl)methyl)-6-phenylpiperidin-2-one]	< 100
C[C@@]1(O)CC[C@H]2[C@H](CC[C@@H]3[C@@H]2CC[C@]2(C)[C@@H](CN4C(=O)CCC[C@H]4c4ccccc4)CC[C@@H]32)C1 [Example 14, (S)-1-(((3R,5R,8R,9R,10S,13S,14S,17S)-3-hydroxy-3,13-dimethylhexadecahydro-1H-cyclopenta[a]phenanthren-17-yl)methyl)-6-phenylpiperidin-2-one]	100 to 1000
CCOC[C@@]1(O)CC[C@H]2[C@H](CC[C@@H]3[C@@H]2CC[C@]2(C)[C@@H](CNC(=O)c4ccccc4)CC[C@@H]32)C1 [Example 15, N-(((3R,5R,8R,9R,10S,13S,14S,17S)-3-(ethoxymethyl)-3-hydroxy-13-methylhexadecahydro-1H-cyclopenta[a]phenanthren-17-yl)methyl)benzamide]	< 100
COC[C@@]1(O)CC[C@H]2[C@H](CC[C@@H]3[C@@H]2CC[C@]2(C)[C@@H](CNC(=O)c4ccccc4)CC[C@@H]32)C1 [Example 16, N-(((3R,5R,8R,9R,10S,13S,14S,17S)-3-hydroxy-3-(methoxymethyl)-13-methylhexadecahydro-1H-cyclopenta[a]phenanthren-17-yl)methyl)benzamide]	< 100
C[C@H](NS(=O)(=O)c1ccccc1)[C@H]1CC[C@H]2[C@@H]3CC[C@@H]4C[C@](C)(O)CC[C@@H]4[C@H]3CC[C@]12C [Example 17, N—((S)-1-((3R,5R,8R,9R,10S,13S,14S,17S)-3-hydroxy-3,13-dimethylhexadecahydro-1H-cyclopenta[a]phenanthren-17-yl)ethyl)benzenesulfonamide]	1000 to 10000
